{"source": "patent US20220257722A1", "about": "“COMPOSITIONS AND METHODS OF TREATING AND PREVENTING SYSTEMIC COMPLICATIONS OF ACUTE ILLNESS” (United States Government As Represented By The Department …, priority 2019, published 2022)", "key": {"rat jejunal mucosa": {"tested_on": "rat jejunal mucosa", "test": "LPS mucosal-to-serosal transport in Ussing-chambered rat jejunal mucosa (LAL test)", "type": "cell-based", "details": "for OA/TCA-augmented LPS transport (t=30-45 min): mucosal LPS 10 μg/ml + OA 30 mM/TCA 0.1 mM; for OA/TCA-augmented LPS transport (t=30-45 min) / LPS transport at t=15 min (LPS alone, absence of OA/TCA): drug added 10 or 15 min before LPS; for LPS transport at t=15 min (LPS alone, absence of OA/TCA): mucosal LPS 10 μg/ml", "method": "Short-circuit current measurements in Ussing chambered preparations. Mucosa-submucosa preparations were prepared from the mid-jejunum (˜20 cm from the pyloric ring) by muscle stripping using fine forceps under a stereomicroscope. Two or four preparations were prepared from one animal. The tissue was then mounted between two hemi-sliders with an aperture=0.3 cm^2 (Physiologic Instruments, San Diego, Calif., USA). Chambers were bathed with serosal and luminal bathing solutions in a volume of 4 ml each, maintained at 37° C. using a water recirculating heating system. The serosal Krebs-Ringer solution contained (in mM) NaCl, 117; KCl, 4.7; MgCl2, 1.2; NaH2PO4, 1.2; CaCl2, 2.5; NaHCO3, 25; glucose, 11; and bubbled with 95% O2-5% CO2 to maintain pH at 7.4. The luminal bathing solution contained NaCl, 136; KCl, 2.6; CaCl2, 1.8; HEPES, 10 (pH 7.0); mannitol, 11; and bubbled with 100% O2. The tissues were short-circuited by a voltage clamp (VCC MC6, Physiologic Instruments) at zero potential difference with automatic compensation for solution resistance. Short-circuit current (Isc) was continuously measured with tissue conductance (Gt) and TEER (Ω·cm^2) determined every 20 sec in order to assess the tissue integrity during the LPS and lipid exposure. The current was recorded by the DataQ system (Physiologic Instruments). IND (10 μM) was added to the serosal bath to eliminate the effects of endogenous prostaglandin production. The tissues were stabilized for ˜30 min before the addition of test chemicals.\nLPS movement from mucosal to serosal solution. LPS movement m-to-s was assessed using a LAL test kit (Pierce Chromogenic Endotoxin Quant Kit, Pierce Biotechnology, Rockford, Ill., USA), which eliminates non-specific detection of (1,3)-β-D-glucan, then reduces false-positive LPS measurements. After tissue stabilization, time was set as t=0 min. Fifty μl of the serosal solution was collected at 0 min as a blank sample, followed by collection at t=15, 30 and 45 min. At t=0 min, LPS (10 μg/ml) was added into the mucosal solution. Vehicle (PBS alone), TCA alone (0.1 mM) in PBS or OA (3, 10, 30 mM) with TCA (0.1 mM) in PBS was added into the mucosal solution at t=15 min. The tissues were pretreated with drugs 10 or 15 min before the addition of LPS (i.e. at t=−10 or −15 min). The collected serosal solutions were kept at −80° C. until use. LPS content in the serosal solutions was measured with the LAL test according to the manufacturer's protocol. The value of background at t=0 min was subtracted and the serosal LPS appearance was expressed as Δ[LPS] (EU/ml). In some experiments, FITC-LPS (10 μg/ml) was used instead of LPS. Serosal FITC-LPS content was assessed by FITC fluorescence intensity measurement using a multi-mode microplate reader (Synergy-2, BioTek Instruments, Inc., Winooski, Vt., USA). To detect macromolecule m-to-s movement across the mucosa, FD4 (0.1 mM) was applied into the mucosal bath and serosal FD4 content was assessed by FITC fluorescence intensity measurement.\nUssing chamber study: drug treatment. The following drugs were pretreated by addition to the mucosal (m) or serosal (s) bath 10 or 15 min before LPS addition to the mucosal bath: the lipid raft inhibitor MβCD (1 mM, m), the CD36 inhibitor SSO (0.1 mM, m), the muscarinic agonist CCh (10 μM, s), a competitive substrate for IAP (IAP inhibitor) GP (10 mM, m) (47), GLP-2 (100 nM, s), the dipeptidyl peptidase-4 (DPP4) inhibitor NVP-728 (10 μM, s) (36), the stable GLP-2 analog TDG (100 nM) (13), the insulin-like growth factor-1 (IGF-1) receptor tyrosine kinase inhibitor NVP-AEW-541 (10 μM, s) (22), the epidermal growth factor (EGF) tyrosine kinase inhibitor PD153035 (1 μM, s) (6), the nitric oxide (NO) synthase (NOS) inhibitor L-NAME (0.1 mM, s) and the selective VPAC1 antagonist PG97-269 (1 μM) (26)."}, "rat small intestine": {"tested_on": "rat small intestine", "test": "LPS-induced small intestinal FD4 paracellular permeability in vivo (PV and arterial FD4)", "details": "for TDG-induced inhibitory effect on PV FD4 levels: LPS 6 hr + TDG 6 hr", "method": "LPS treatment. Animals were treated with LPS (5 mg/kg, ip) once at 9 am. For the acute experiments, the animals were fasted overnight and were treated with LPS 1, 3, or 6 hr before the anesthesia for small intestinal perfusion of FD4 as described herein. For the 24-hr experiments, the animals fed ad libitum were treated with LPS 24 hr before anesthesia induction used for the perfusion study. As a control, saline was injected ip at the corresponding time before the experiments. The animal groups were expressed as control, LPS 1 hr, LPS 3 hr, LPS 6 hr, and LPS 24 hr.\nSmall intestinal perfusion. The small intestinal perfusion from the duodenum, and portal vein (PV) cannulation were prepared by the modified methods. Under isoflurane anesthesia (2%), the animal was placed […] on a recirculating heating block system (Summit Medical Systems, Bend, Oreg., USA) in order to maintain body temperature at 36-37° C. Prewarmed saline was infused via the right femoral vein at 1.08 ml/h using a Harvard infusion pump (Harvard Apparatus, Holliston, Mass., USA). The abdomen was incised, and the PV was cannulated with a polyethylene (PE)-50 tube attached with 23G needle and fixed by methylacrylate adhesive at the insertion site. The tube was filled with heparinized saline enabling repeated blood sampling. Samples of 0.2 ml PV blood were collected every 15 min, followed by flushing with 0.2 ml heparinized saline. A polyethylene tube (diameter 5 mm) filled with PBS was inserted through the forestomach and tied at 0.5 cm caudal from the pyloric ring. After bolus perfusion of 2-ml phosphate buffer saline (PBS, 10 mM, pH 7.4) into the duodenum from the tube, followed by stabilization for ˜30 min, the time was set as t=0. FD4 (0.1 mM) in 10-ml PBS was slowly perfused at t=0 min for 30 sec. Blood samples were collected into a 0.5-ml tubes containing 1-μl each of EDTA (0.5 M) and the dipeptidyl peptidase-4 (DPP4) inhibitor NVP-728 (1 mM), and immediately centrifuged at 5,000× g for 5 min, after which the plasma was stored on ice or at −80 ° C. until use. At 90 min, after collection of PV samples, arterial blood was taken from abdominal aorta, followed by euthanasia by thoracotomy.\nAppearance of FD4 into the PV and arterial plasma was assessed by fluorescence intensity measurement using a multi-mode microplate reader (Synergy-2, BioTek Instruments, Inc., Winooski, VT, USA). Fluorescence intensity in t=0 sample as background was subtracted from the fluorescence values measured in other time point samples. FD4 content was calculated according to the standard curve generated each time of measurement.\nDrug treatment for the intestinal perfusion study. The following drugs were administered at the time after LPS treatment: the GLP2R partial agonist/antagonist GLP-2(3-33) (1 mg/kg; 280 nmol/kg, ip) was given immediately after LPS treatment (0 hr after LPS treatment); GLP-2 (380 μg/kg; 100 nmol/kg, ip) was given 6 hr after LPS treatment; a stable GLP-2 analog TDG (50 μg/kg; 13.3 nmol/kg) was ip injected 0, 3, 6, or 12 hr after LPS treatment or iv injected at t=0 min just before the perfusion of FD4 solution (6 or 24 hr after LPS treatment). In acute experiments, TDG was iv injected at t=0 min (6 hr after LPS treatment) with or without the pretreatment of the selective IGF1 receptor (IGF1R) tyrosine kinase inhibitor AEW541 (0.1 mg/kg, iv), the selective EGF receptor (EGFR) tyrosine kinase inhibitor PD153035 (10 μg/kg, iv) or PG97-269 (1 mg/kg, iv) at t=−10 min, or the co-perfusion of L-NAME (0.1 mM, pf) with FD4 solution."}, "[1]": {"details": "pig, in vivo; cited from earlier work"}, "[2]": {"details": "LPS 24 hr model, GLP-2 380 μg/kg ip 6 hr after LPS"}, "[3]": {"details": "inhibitor iv at t=-10 min or co-perfused"}, "[4]": {"details": "inhibitor serosal before GLP-2 + NVP-728"}, "[5]": {"details": "LPS 6 hr model, GLP-2(3-33) 1 mg/kg ip immediately after LPS"}}}
{"molecule": "HADGSFSDEMNTILDNLATRDFINWLIQTKITD [GLP-2]", "values": [{"measurement": "LPS transport during OA/TCA exposure period, GLP-2 with NVP-728", "setting": "rat jejunal mucosa; GLP-2 100 nM + DPP4 inhibitor NVP-728 10 μM, serosal", "value": "inhibited"}, {"measurement": "OA/TCA-augmented LPS transport (t=30-45 min)", "setting": "rat jejunal mucosa", "value": "no effect"}, {"measurement": "LPS transport at t=15 min (LPS alone, absence of OA/TCA)", "setting": "rat jejunal mucosa", "value": "no effect"}, {"measurement": "PV FD4 levels", "setting": "rat small intestine; [2]", "value": "reduced"}, {"measurement": "arterial FD4 levels", "setting": "rat small intestine; [2]", "value": "reduced"}, {"measurement": "t1/2 of exogenous GLP-2", "setting": "[1]", "value": "~7", "unit": "min"}]}
{"molecule": "O=P(O)(O)OCC(O)CO", "note": "(stereo not drawn) [GP, glycerol phosphate]", "values": [{"measurement": "OA/TCA-augmented LPS transport (t=30-45 min)", "setting": "rat jejunal mucosa", "value": "further increased"}, {"measurement": "LPS transport at t=15 min (LPS alone, absence of OA/TCA)", "setting": "rat jejunal mucosa", "value": "no effect"}]}
{"molecule": "N#Cc1ccc(NCCNCC(=O)N2CCC[C@H]2C#N)nc1", "note": "[NVP-728]", "values": [{"measurement": "OA/TCA-augmented LPS transport (t=30-45 min)", "setting": "rat jejunal mucosa", "value": "no effect"}, {"measurement": "LPS transport at t=15 min (LPS alone, absence of OA/TCA)", "setting": "rat jejunal mucosa", "value": "no effect"}]}
{"molecule": "Nc1ncnc2c1c(-c1cccc(OCc3ccccc3)c1)cn2[C@H]1C[C@@H](CN2CCC2)C1", "note": "[NVP-AEW-541]", "values": [{"measurement": "TDG-induced inhibitory effect on PV FD4 levels", "setting": "rat small intestine; [3]", "value": "no effect"}]}
{"molecule": "COc1cc2ncnc(Nc3cccc(Br)c3)c2cc1OC", "note": "[PD153035]", "values": [{"measurement": "amount of LPS transport after addition of OA/TCA, in presence of GLP-2 + NVP-728", "setting": "rat jejunal mucosa; [4]", "value": "further increased"}, {"measurement": "amount of LPS transport at t=15 min (prior to OA/TCA exposure), in presence of GLP-2 + NVP-728", "setting": "rat jejunal mucosa; [4]", "value": "increased"}, {"measurement": "TDG-induced inhibitory effect on PV FD4 levels", "setting": "rat small intestine; [3]", "value": "no effect"}, {"measurement": "Arterial FD4 levels in LPS 6 hr + TDG 6 hr rats", "setting": "rat small intestine; t=90 min, inhibitor iv at t=-10 min or co-perfused", "value": "not affected"}]}
{"molecule": "C[N+](C)(C)CCOC(N)=O", "note": "[CCh, carbachol]", "values": [{"measurement": "OA/TCA-augmented LPS transport (t=30-45 min)", "setting": "rat jejunal mucosa", "value": "further increased"}, {"measurement": "LPS transport at t=15 min (LPS alone, absence of OA/TCA)", "setting": "rat jejunal mucosa", "value": "increased"}]}
{"molecule": "GLP-2(3-33): GLP-2 receptor partial agonist/antagonist; truncated GLP-2 peptide missing the first 2 amino acids (DGSFSDEMNTILDNLATRDFINWLIQTKITD; Glucagon-like peptide 2; UniProt P06883 148-178, looked up, fragment)", "values": [{"measurement": "OA/TCA-augmented LPS transport (t=30-45 min)", "setting": "rat jejunal mucosa", "value": "no effect"}, {"measurement": "LPS transport at t=15 min (LPS alone, absence of OA/TCA)", "setting": "rat jejunal mucosa", "value": "no effect"}, {"measurement": "PV FD4 levels at t=60-90 min", "setting": "rat small intestine; [5]", "value": "further increased"}, {"measurement": "arterial FD4 levels at t=90 min", "setting": "rat small intestine; [5]", "value": "further increased"}]}
